These are literature values, as cited in paper PMC10005815 (Journal of Medicinal Chemistry, 2023).

The term IC50 denotes the midpoint of a concentration-inhibition curve. As usually defined, the EC50 is the concentration giving half of the maximal effect. One may read the Ki as the equilibrium dissociation constant of an inhibitor or competing ligand from its target. As a reminder, the CC50 is the concentration giving 50% cytotoxicity. The Kd is a measure of binding affinity in units of concentration. For orientation: EC90 means the concentration needed for an effect of 90%.

Like-named read-outs stand apart in the source and are kept apart here. * marks the point of attachment. Cbz = O=C(OCc1ccccc1)*

Data set [1] deals with MERS-CoV S protein-mediated cell–cell fusion. As to conditions: read-out: IC50 in vitro fusion assay (MERS-CoV).
Data set [2] has as its system SARS-CoV-1.
The target in data set [3] is TMPRSS2.
In data set [4] the test system is panel of proteases. Particulars: read-out: IC50 proteases (selectivity panel).
The target in data set [5] is HCoV-229E M^pro.
Data set [6] deals with COVID-19. Particulars: human, in vivo.
Data set [7] concerns SARS-CoV-2.
Data set [8] has as its system Vero E6 cells.
The subject of data set [9] is Vero cells.
In data set [10] the test system is SARS-CoV-2 PsV.
Data set [11] has as its target RdRp from SARS-CoV-2. As to conditions: read-out: Predicted Ki for binding to the protein active site.
Data set [12] relates to SARS-CoV-1 M^pro. Particulars: for Ki: read-out: SARS-CoV-1 M^pro Ki.
The test system of data set [13] is SARS-CoV-2 Omicron BA.1 and BA.2. As to conditions: in vivo.
For data set [14] the following is noted: buffer.
Data set [15] has as its system human mitochondrial RNA polymerase (h-mtRNAP).
Data set [16] deals with SARS-CoV-1 PL^pro.
Data set [17] relates to SARS-CoV-1 replicon.
Data set [18] has as its system SARS-CoV-1. As to conditions: mouse, in vivo.
The subject of data set [19] is MERS-CoV.
Data set [20] has as its system Ebola.
Data set [21] deals with HCoV-229E. As to conditions: for EC50: read-out: HCoV-229E EC50.
Data set [22] deals with Akt.
Data set [23] relates to HCoV-NL63 M^pro.
In data set [24] the target is SARS-CoV-2 M^pro.
The conditions of data set [25]: rat, in vivo.
Data set [26] concerns TMPRSS2. This is another data set of the same source.
Data set [27] has as its system HCoV-OC43. As to conditions: read-out: HCoV-OC43 EC90.
The test system of data set [28] is Vero E6/TMPRSS2 cells.
Setting [29] is: read-out: SARS-CoV-1 M^pro IC50.

Turning to `N=C(N)Nc1ccc(C(=O)Oc2ccc3cc(C(=N)N)ccc3c2)cc1` [Nafamostat], in data set [1], the concentration for half-maximal inhibition (IC50) is about 1 nM. For Cbz-Val-Phe-aldehyde [MDL28170], the EC50 in [2] (read-out: EC50 neutral red uptake assay) is 500 nM. With `N=C(N)c1cccc(C[C@H](NS(=O)(=O)c2cccc(-c3ccc(Cl)cc3Cl)c2)C(=O)N2CCC(CCN)CC2)c1` [I-432], the Ki in data set [3] was 0.9 nM. As for `COc1cccc2[nH]c(C(=O)N[C@@H](CC(C)C)C(=O)N[C@@H](C[C@@H]3CCNC3=O)C(=O)CO)cc12` [PF-00835231], in data set [2] (read-out: SARS-CoV-1 EC50), the EC50 is 4800 nM. The concentration for half-maximal inhibition (IC50) in data set [4] is over 10000 nM. As for `Cc1cc(C(=O)N[C@@H](C)C(=O)N[C@H](C(=O)N[C@@H](CC(C)C)C(=O)N[C@H](/C=C/C(=O)OCc2ccccc2)C[C@@H]2CCNC2=O)C(C)C)no1` [N3], the inhibition constant Ki in data set [5] was 1670 nM.

`CCC(CC)COC(=O)[C@H](C)N[P@](=O)(OC[C@H]1O[C@@](C#N)(c2ccc3c(N)ncnn23)[C@H](O)[C@@H]1O)Oc1ccccc1` [remdesivir, Remdesivir]: the “Reduction of hospitalization compared to placebo” value in data set [6] is recorded as 87%. In data set [7] (read-out: SARS-CoV-2 infection IC50), the IC50 was 770 nM. For the same molecule, in data set [8], the cytotoxic concentration (CC50) was over 100000 nM. On to `NC1(C(=O)N[C@@H](CCO)c2ccc(Cl)cc2)CCN(c2ncnc3[nH]ccc23)CC1` [Capivasertib], for which, in [9], the 50% cytotoxicity concentration is 82 µM. On to `CCOC(=O)[C@H]1OC1C(=O)N[C@@H](CC(C)C)C(=O)NCCC(C)C` (stereo partly drawn) [E64D], for which the “Reduction in the entry of SARS-CoV-2 PsV” value in data set [10] is 92.5%.

Turning to `COc1ccc2c(c1)[C@@H]1C[C@]1(C(=O)N1[C@@H]3CC[C@H]1CN(C)C3)Cn1c-2c(C2CCCCC2)c2ccc(C(=O)NS(=O)(=O)N(C)C)cc21` [Beclabuvir], the inhibition constant (Ki) in data set [11] was about 50 nM.

As to `O=C(Oc1cncc(Cl)c1)c1cccc2[nH]ccc12` [compound 10], the 50% inhibitory concentration (IC50) in data set [12] (setting [29]) was 30 nM. Further, in data set [2] (read-out: SARS-CoV-1 EC50), the EC50 was 6900 nM. In the case of `CC(C)(C)[C@H](NC(=O)C(F)(F)F)C(=O)N1C[C@H]2[C@@H]([C@H]1C(=O)N[C@H](C#N)C[C@@H]1CCNC1=O)C2(C)C` [PF-07321332], the “Effect on virus titers” value in [13] is recorded as “only reduced the lung virus titers”. Turning to `O=C(Oc1cncc(Br)c1)c1ccco1` [compound 39], the half-inhibitory concentration (IC50) in [12] (setting [29]) was 50 nM. Besides, in data set [14], the T1/2 result is “[drawing 13] 39 SARS-CoV-1 M^pro IC50= 50 nM T1/2 = 119 h, phosphate buffer pH= 7.5”. In the case of `N#C[C@@]1(c2ccc3c(N)ncnn23)O[C@H](COP(=O)(O)OP(=O)(O)OP(=O)(O)O)[C@@H](O)[C@H]1O` [remdesivir-TP], the “Selectivity with respect to ATP” value in data set [15] was “up to 500 fold”. In the case of `CCC(C)(C)NC(=O)C(c1ccn(C)c1)N(C(=O)Cn1nnc2ccccc21)c1ccc(NC(C)=O)cc1` (stereo not drawn) [SID24808289], the IC50 was 6200 nM in data set [12] (setting [29]) and over 60000 nM in data set [16].

For the molecule `CC(OC(C)(C)C)[C@H](NC(=O)OCc1ccccc1)C(=O)N[C@@H](CC1CCCCC1)C(=O)N[C@H](C=O)C[C@@H]1CCNC1=O` (stereo partly drawn) [TG-0205221], the values for the inhibition constant Ki in [12] and in data set [5] were 53 nM and 68 nM, respectively. `O=C[C@H](C[C@@H]1CCNC1=O)NC(=O)[C@H](Cc1ccccc1)NC(=O)c1cc2ccccc2[nH]1` [18p]: the EC50 in data set [7] (read-out: SARS-CoV-2 EC50) was 290 nM. In the case of `CC(C)C(=O)OC[C@H]1O[C@@H](n2ccc(NO)nc2=O)[C@H](O)[C@@H]1O` [Molnupiravir], the “Effect on virus titers” value in data set [13] is recorded as “only reduced the lung virus titers”. The “Efficacy in inhibiting SARS-CoV-2 replication relative to remdesivir” value in [7] is on record as 5–10 fold.

Regarding `CC(C)(C)OC(=O)Nc1cccn([C@@H](CC2CC2)C(=O)N[C@@H](C[C@@H]2CCNC2=O)C(=O)C(=O)NCc2ccccc2)c1=O` [13b], the IC50 in [12] (setting [29]) was 900 nM. Besides, the concentration giving a half-maximal response (EC50) in [17] is 1750 nM; in data set [7] (read-out: SARS-CoV-2 EC50), 4000 nM. Consider `CN(C)C(=O)COC(=O)Cc1ccc(OC(=O)c2ccc(NC(=N)N)cc2)cc1` [Camostat], for which the “Survival rate to SARS-CoV-1” value in data set [18] is recorded as about 60%. Moreover, in [19], the “Reduction of MERS-CoV production” value is listed as 270 fold. Take `CCc1ccccc1NC(=O)CSC(=O)NNC(=O)[C@H](Cc1c[nH]c2ccccc12)NC(=O)OC(C)(C)C` [SID-26681509]: the “Decrease of SARS-CoV-2 pseudovirion entry” value in data set [10] is on record as “about 76%”. With `O=C(O)C1=CC(=C(c2ccc(O)c(C(=O)O)c2)c2ccc(O)c(C(=O)O)c2)C=CC1=O` [ATA, Aurintricarboxylic acid], in data set [2], the “Inhibition of mRNA transcription with respect to control” value is “more than 1000 fold” and the “SARS-CoV-1 replication IC50” value is 200 µg/mL. As for `Cc1cccc(/C=N/Nc2cc(N3CCOCC3)nc(OCCc3ccccn3)n2)c1` [Apilimod], the “Concentration preventing EVD infection of several cell lines” value in data set [20] was about 0.1 µM. As to `CN(C)CCCSc1ccccc1NC(=O)/C=C/c1ccccc1` [cinanserin], the figures for the half-maximal inhibitory concentration (IC50) in [12] (read-out: M^pro IC50) and in [21] (read-out: HCoV-229E IC50 (antiviral assay)) were about 5000 nM and 19000 nM, respectively. Regarding `CCOc1cc2ncc(C#N)c(Nc3ccc(F)c(Cl)c3)c2cc1NC(=O)/C=C/CN(C)C` [pelitinib], the concentration giving a half-maximal response (EC50) in [7] (read-out: EC50 (antiviral)) is 1250 nM. Take `COc1ccc(C(=O)Nc2cccc(C(F)(F)F)c2)cc1Nc1nc(-c2cccnc2)c2[nH]ccc2n1` [XMU-MP-7]: the dissociation constant (Kd) in data set [22] is 6.4 nM. `O=C(/C=C/c1ccccc1)N[C@@H](CC1CCCCC1)C(=O)N[C@@H](C[C@@H]1CCNC1=O)C(=O)C(=O)NCc1ccccc1` [11r]: the half-maximal inhibitory concentration (IC50) in data set [12] (setting [29]) was 710 nM; in data set [23] it was 12300 nM. The EC50 in data set [2] (read-out: SARS-CoV-1 EC50) is 2100 nM; in data set [21] it was 1800 nM. In addition, the “S.I. MERS-CoV (CC50/EC50)” value in data set [19] is recorded as 1.1 × 10^5. `O=C(On1nnc2ccccc21)c1ccc2[nH]ccc2c1` [compound 8]: in data set [12], the Ki is 7.5 nM.

In the case of `COc1cccc2[nH]c(C(=O)N[C@@H](CC(C)C)C(=O)N[C@@H](C[C@@H]3CCNC3=O)C(=O)c3nc4ccccc4s3)cc12` [5h], the Ki in data set [12] was 6.3 nM; in data set [24] (read-out: SARS-CoV-2 M^pro Ki), 17.6 nM. In data set [25], the Bioavailability entry is “low bioavailability”. For the molecule `COc1cccc2[nH]c(C(=O)N[C@@H](CC(C)C)C(=O)N[C@@H](C[C@@H]3CCCNC3=O)C(=O)COC(=O)c3c(C)cc(C)nc3C)cc12` [15l], in [24] (read-out: SARS-CoV-2 M^pro IC50), the IC50 is 19 nM. Moreover, the concentration giving a half-maximal response (EC50) in data set [21] was 48 nM. In the case of `N=C(N)Nc1ccc(C(=O)O)cc1` [GBA, 4-guanidinobenzoic acid], the TMPRSS2 inhibition entry in [26] is “inactive”.

Take `Cn1cnc(Cn2c(=O)[nH]/c(=N\c3cc4cn(C)nc4cc3Cl)n(Cc3cc(F)c(F)cc3F)c2=O)n1` [S-217622]: the EC50 in data set [2] (read-out: SARS-CoV-1 EC50) is 210 nM; in data set [7] (read-out: SARS-CoV-2 WT strain EC50) it was 370 nM; in [19] (read-out: MERS-CoV EC50), 1400 nM; in [21], 5500 nM. Also, the “Effect on virus titers” value in data set [13] is “additionally decreased the virus titers in the nasal turbinates”. In data set [27], the EC90 is 74 nM. For the same molecule, the CC50 in [28] was over 100000 nM.
